Measurements published in ChEMBL document CHEMBL3044612, “Design, synthesis and biological evaluation of some novel 3-cinnamoyl-4-hydroxy-2H-chromen-2-ones as antimalarial agents” (Med Chem Res, 2012).
Values after ≈ are worked out from the molar mass of the structure shown.

Key:
Plasmodium falciparum [1] = assay: Antimalarial activity against chloroquine-sensitive Plasmodium falciparum 3D7 by in vitro cell culture method; format: functional, organism-based
K562 = assay: Cytotoxicity against Homo sapiens (human) K562 cells by Sulphorhodamine B assay; format: cell-based
Plasmodium falciparum [2] = assay: Antimalarial activity against chloroquine-resistant Plasmodium falciparum W2 by in vitro cell culture method; format: functional, organism-based
[3] = Selectivity index, ratio of IC50 for human K562 cells to IC80 for chloroquine-sensitive Plasmodium falciparum 3D7; format: toxicity, cell-based; conditions: read-out: Selectivity Index
[4] = Selectivity index, ratio of IC50 for human K562 cells to IC50 for chloroquine-resistant Plasmodium falciparum W2; format: toxicity, cell-based; conditions: read-out: Ratio IC50
[5] = Selectivity index, ratio of IC50 for human K562 cells to IC50 for chloroquine-sensitive Plasmodium falciparum 3D7; format: toxicity, cell-based; conditions: read-out: Ratio IC50
Plasmodium falciparum [6] = assay: Antimalarial activity against Plasmodium falciparum by [3H]-hypoxanthine incorporation assay; format: functional, organism-based

Question: With O=C(/C=C/c1ccc(Cl)cc1Cl)c1c(O)c2ccccc2oc1=O as the compound, how does the IC50 (Plasmodium falciparum [1]) read?
Answer: Its IC50 is greater than 50 µg/mL.

Question: What about the IC50 (K562) of the same compound?
Answer: Its IC50 is 149 µg/mL (≈ 413 µM).

Question: Which IC50 (Plasmodium falciparum [1]) does the source give for Cc1ccc(/C=C/C(=O)c2c(O)c3ccccc3oc2=O)cc1 here?
Answer: The IC50 was 6.1 µg/mL (≈ 19.9 µM).

Question: What about the IC80 (Plasmodium falciparum [1]) of the same compound?
Answer: Its IC80 is 15 µg/mL (≈ 49 µM).

Question: And the IC50 (Plasmodium falciparum [2])?
Answer: The IC50 was 5.1 µg/mL (≈ 16.6 µM).

Question: Which IC50 (Plasmodium falciparum [1]) does the source give for O=C(/C=C/c1ccccc1)c1c(O)c2ccccc2oc1=O here?
Answer: The IC50 was 22.1 µg/mL (≈ 75.6 µM).

Question: And the IC80 (Plasmodium falciparum [1])?
Answer: The IC80 was 56.3 µg/mL (≈ 193 µM).

Question: And the selectivity ratio [3]?
Answer: The selectivity ratio was 1.76.

Question: What about the selectivity ratio [4] of the same compound?
Answer: Its selectivity ratio is 9.02.

Question: What about the IC50 (K562) of the same compound?
Answer: Its IC50 is 99.2 µg/mL (≈ 339 µM).

Question: And the selectivity ratio [5]?
Answer: The selectivity ratio was 4.49.

Question: What about the IC50 (Plasmodium falciparum [2]) of the same compound?
Answer: The IC50 was 11 µg/mL (≈ 37.6 µM).

Question: With COc1cc(/C=C/C(=O)c2c(O)c3ccccc3oc2=O)ccc1O as the compound, how does the IC50 (Plasmodium falciparum [1]) read?
Answer: Its IC50 is 11.2 µg/mL (≈ 33.1 µM).

Question: And the IC80 (Plasmodium falciparum [1])?
Answer: Its IC80 is 27.2 µg/mL (≈ 80.4 µM).

Question: What about the IC50 (Plasmodium falciparum [2]) of the same compound?
Answer: Its IC50 is 61.3 µg/mL (≈ 181 µM).

Question: What does the source list for CN(C)c1ccc(/C=C/C(=O)c2c(O)c3ccccc3oc2=O)cc1?
Answer: IC50 (Plasmodium falciparum [1]): 17.2 µg/mL (≈ 51.3 µM); IC80 (Plasmodium falciparum [1]): 22.1 µg/mL (≈ 65.9 µM); selectivity ratio [3]: 7.08; selectivity ratio [4]: 2.29; IC50 (K562): 156 µg/mL (≈ 467 µM); selectivity ratio [5]: 9.1; IC50 (Plasmodium falciparum [2]): 68.2 µg/mL (≈ 203 µM)

Question: With O=C(/C=C/c1ccc(Cl)cc1)c1c(O)c2ccccc2oc1=O as the compound, how does the IC50 (Plasmodium falciparum [1]) read?
Answer: The IC50 was 5.1 µg/mL (≈ 15.6 µM).

Question: What about the IC80 (Plasmodium falciparum [1]) of the same compound?
Answer: Its IC80 is 14.2 µg/mL (≈ 43.5 µM).

Question: What about the selectivity ratio [3] of the same compound?
Answer: The selectivity ratio was 2.26.

Question: And the selectivity ratio [4]?
Answer: Its selectivity ratio is 4.94.

Question: And the IC50 (K562)?
Answer: Its IC50 is 32.1 µg/mL (≈ 98.2 µM).

Question: What about the selectivity ratio [5] of the same compound?
Answer: The selectivity ratio was 6.29.

Question: What about the IC50 (Plasmodium falciparum [2]) of the same compound?
Answer: Its IC50 is 6.5 µg/mL (≈ 19.9 µM).

Question: With O=C(/C=C/c1cccc([N+](=O)[O-])c1)c1c(O)c2ccccc2oc1=O as the compound, how does the IC50 (Plasmodium falciparum [1]) read?
Answer: Its IC50 is 15.6 µg/mL (≈ 46.3 µM).

Question: What about the IC80 (Plasmodium falciparum [1]) of the same compound?
Answer: The IC80 was 25.2 µg/mL (≈ 74.7 µM).

Question: What about the selectivity ratio [3] of the same compound?
Answer: Its selectivity ratio is 6.02.

Question: And the selectivity ratio [4]?
Answer: Its selectivity ratio is 2.8.

Question: And the IC50 (K562)?
Answer: The IC50 was 152 µg/mL (≈ 450 µM).

Question: And the selectivity ratio [5]?
Answer: Its selectivity ratio is 9.72.

Question: And the IC50 (Plasmodium falciparum [2])?
Answer: The IC50 was 54.1 µg/mL (≈ 160 µM).

Question: Which results are given for O=C(/C=C/c1ccc([N+](=O)[O-])cc1)c1c(O)c2ccccc2oc1=O?
Answer: IC50 (Plasmodium falciparum [1]): 3.1 µg/mL (≈ 9.19 µM); IC80 (Plasmodium falciparum [1]): 7 µg/mL (≈ 20.8 µM); selectivity ratio [3]: 22; selectivity ratio [4]: 38.5; IC50 (K562): 154 µg/mL (≈ 457 µM); selectivity ratio [5]: 49.7; IC50 (Plasmodium falciparum [2]): 4 µg/mL (≈ 11.9 µM)

Question: Which IC50 (Plasmodium falciparum [1]) does the source give for COc1ccc(/C=C/C(=O)c2c(O)c3ccccc3oc2=O)cc1OC here?
Answer: The IC50 was 6.2 µg/mL (≈ 17.6 µM).

Question: What about the IC80 (Plasmodium falciparum [1]) of the same compound?
Answer: The IC80 was 15.1 µg/mL (≈ 42.9 µM).

Question: And the selectivity ratio [3]?
Answer: Its selectivity ratio is 4.73.

Question: What about the selectivity ratio [4] of the same compound?
Answer: The selectivity ratio was 3.25.

Question: What about the IC50 (K562) of the same compound?
Answer: The IC50 was 71.4 µg/mL (≈ 203 µM).

Question: What about the selectivity ratio [5] of the same compound?
Answer: Its selectivity ratio is 11.5.

Question: What about the IC50 (Plasmodium falciparum [2]) of the same compound?
Answer: The IC50 was 22 µg/mL (≈ 62.4 µM).

Question: For O=C(/C=C/c1cccc(Cl)c1)c1c(O)c2ccccc2oc1=O, which IC50 (Plasmodium falciparum [1]) is on record?
Answer: Its IC50 is 4.2 µg/mL (≈ 12.9 µM).

Question: And the IC80 (Plasmodium falciparum [1])?
Answer: Its IC80 is 9 µg/mL (≈ 27.5 µM).

Question: What about the IC50 (Plasmodium falciparum [2]) of the same compound?
Answer: The IC50 was 6.2 µg/mL (≈ 19 µM).

Question: What does the source list for COc1ccc(/C=C/C(=O)c2c(O)c3ccccc3oc2=O)c(OC)c1OC?
Answer: IC50 (Plasmodium falciparum [1]): 8.5 µg/mL (≈ 22.2 µM); IC80 (Plasmodium falciparum [1]): 20.3 µg/mL (≈ 53.1 µM); selectivity ratio [3]: 2.3; selectivity ratio [4]: 0.83; IC50 (K562): 46.6 µg/mL (≈ 122 µM); selectivity ratio [5]: 5.48; IC50 (Plasmodium falciparum [2]): 56.1 µg/mL (≈ 147 µM)

Question: For O=C(/C=C/c1ccccc1Cl)c1c(O)c2ccccc2oc1=O, which IC50 (Plasmodium falciparum [1]) is on record?
Answer: The IC50 was greater than 50 µg/mL.

Question: What about the IC50 (K562) of the same compound?
Answer: Its IC50 is 124 µg/mL (≈ 378 µM).

Question: Which IC80 (Plasmodium falciparum [1]) does the source give for CCN(CC)CCCC(C)Nc1ccnc2cc(Cl)ccc12 (stereo unspecified) [CHLOROQUINE] here?
Answer: Its IC80 is 0.0401 µg/mL (≈ 0.125 µM).

Question: And the IC50 (K562)?
Answer: The IC50 was 43.8 µg/mL (≈ 137 µM).

Question: With O=C(/C=C/c1ccco1)c1c(O)c2ccccc2oc1=O as the compound, how does the IC50 (Plasmodium falciparum [1]) read?
Answer: Its IC50 is greater than 50 µg/mL.

Question: With COc1ccc(/C=C/C(=O)c2c(O)c3ccccc3oc2=O)cc1 as the compound, how does the IC50 (Plasmodium falciparum [1]) read?
Answer: Its IC50 is 7.2 µg/mL (≈ 22.3 µM).

Question: What about the IC80 (Plasmodium falciparum [1]) of the same compound?
Answer: Its IC80 is 6.2 µg/mL (≈ 19.2 µM).

Question: What about the IC50 (Plasmodium falciparum [2]) of the same compound?
Answer: Its IC50 is 35.8 µg/mL (≈ 111 µM).

Question: What does the source list for COc1cc(/C=C/C(=O)c2c(O)c3ccccc3oc2=O)cc(OC)c1OC?
Answer: IC50 (Plasmodium falciparum [1]): > 50 µg/mL; IC50 (K562): 103 µg/mL (≈ 270 µM)

Question: For O=c1ccc2ccc(O)c(O)c2o1 [DAPHNETIN], which IC50 (Plasmodium falciparum [6]) is on record?
Answer: The IC50 was 25 µM.
